Measured values from patent US8293891B2, “4 (pyrrolopyridinyl)pyrimidin-2-ylamine derivatives” (Merck Patent Gesellschaft mit Beschrankter Haftung, priority 2007, dated 2012).

What was measured:
Assay type in all cases: cell-based
A2780 (ovary) = test: Inhibition of the proliferation/vitality of tumour cells (Alamar Blue), A2780; settings: Homo sapiens, 96 h, 4 days cultivation
Procedure: (§1) The cells are sown in a suitable cell density in microtitre plates (96-well format) and the test substances are added in the form of a concentration series. After four further days of cultivation in serum-containing medium, the tumour cell proliferation/tumour cell vitality can be determined by means of an Alamar Blue test system.
The cells are cultivated in medium. At intervals of several days, the cells are detached from the culture dishes with the aid of trypsin solution and sown in suitable dilution in fresh medium. The cells are cultivated at 37° Celsius and 10% CO2.
A defined number of cells (for example 2000 cells) per culture/well in a volume of 180 μl of culture medium are sown in microtitre plates (96 well cell-culture plates) using a multichannel pipette. The cells are subsequently cultivated in a CO2 incubator (37° C. and 10% CO2).
The test substances are dissolved, for example, in DMSO and subsequently employed in corresponding concentration (if desired in a dilution series) in the cell culture medium. The dilution steps can be adapted depending on the efficiency of the active ingredients and the desired spread of the concentrations. Cell culture medium is added to the test substances in corresponding concentrations. The addition of the test substances to the cells can take place on the same day as the sowing of the cells. To this end, in each case 20 μl of substance solution from the predilution plate are added to the cultures/wells. The cells are cultivated for a further 4 days at 37° Celsius and 10% CO2.
In each case, 20 μl of Alamar Blue reagent are added per well, and the microtitre plates are incubated, for example, for a further seven hours in a CO2 incubator (at 37° C. and 10% CO2). The plates are measured in a reader with a fluorescence filter at a wavelength of 540 nm. The plates can be shaken gently immediately before the measurement.
(§2) The absorbance value of the medium control (no cells and test substances used) is subtracted from all other absorbance values. The controls (cells without test substance) are set equal to 100 per cent, and all other absorbance values are set in relation thereto (for example in % of control):
(§3) IC50 values (50% inhibition) are determined with the aid of statistics programs, such as, for example, RS1.

PC3 (prostate) = test: Inhibition of the proliferation/vitality of tumour cells (Alamar Blue), PC3; settings: Prostate cell, 96 h, 4 days cultivation
Procedure: as §1
(§4) The cells are cultivated in medium. At intervals of several days, the cells are detached from the culture dishes with the aid of trypsin solution and sown in suitable dilution in fresh medium. The cells are cultivated at 37° Celsius and 10% CO2. […]
(§5) In each case, 20 μl of Alamar Blue reagent are added per well, and the microtitre plates are incubated, for example, for a further seven hours in a CO2 incubator (at 37° C. and 10% CO2). The plates are measured in a reader with a fluorescence filter at a wavelength of 540 nm. […]
as §2, §3

MCF7 (breast) = test: Inhibition of the proliferation/vitality of tumour cells (Alamar Blue), MCF7; settings: Homo sapiens, 96 h, 4 days cultivation
Procedure: as §1, §4, §5, §2, §3

Colo205 (intestine) = test: Inhibition of the proliferation/vitality of tumour cells (Alamar Blue), Colo205; settings: Homo sapiens, COLO 205, 96 h, 4 days cultivation
Procedure: as §1, §4, §5, §2, §3

Row | IC50 (A2780 (ovary)) [nM] | IC50 (PC3 (prostate)) [nM] | IC50 (MCF7 (breast)) [nM] | IC50 (Colo205 (intestine)) [nM] | SMILES
1 | 10 to 1000 | – | – | – | Fc1cccc(Nc2nccc(-c3c[nH]c4ccncc34)n2)c1 [Compound A7]
2 | 1000 to 10000 | – | – | – | COc1ccc(Nc2nccc(-c3c[nH]c4ccncc34)n2)cc1 [Compound A8]
3 | 10 to 1000 | 10 to 1000 | 10 to 1000 | 10 to 1000 | c1ccc(Nc2nccc(-c3c[nH]c4ccncc34)n2)cc1 [Compound A1, phenyl[4-(1H-pyrrolo[3,2-c]pyridin-3-yl)pyrimidin-2-yl]-amine]
4 | 1000 to 10000 | – | – | – | Cc1ccccc1Nc1nccc(-c2c[nH]c3ccncc23)n1 [Compound A6, [4-(1H-pyrrolo-[3,2-c]pyridin-3-yl)pyrimidin-2-yl]-o-tolyl-amine]
